Among the data in patent publication US9630963B2, “Quinolone derivatives as fibroblast growth factor inhibitors” (Principia Biopharma, Inc., priority 2013, dated 2017) are IC50 values, retold here.

The structures appear in SMILES notation.

For the assay, the target named is human recombinant FGFR1 (Homo sapiens, UniProt P11362). Put plainly: FGFR family enzymatic activity assay (Caliper-based kinase assay), FGFR1. Format: biochemical. The following applies: FGFR1 0.5 nM, ATP 100 μM, peptide substrate 1 μM, room temperature 3 h. The source says: A Caliper-based kinase assay (Caliper Life Sciences, Hopkinton, Mass.) was used to measure inhibition of FGFR family (FGFR1, FGFR2, FGFR3, FGFR4) kinase activity of a compound of Formula (I′) or (I). […] This value is presented as the IC50.
Chain of human recombinant FGFR1 (P11362 22-822): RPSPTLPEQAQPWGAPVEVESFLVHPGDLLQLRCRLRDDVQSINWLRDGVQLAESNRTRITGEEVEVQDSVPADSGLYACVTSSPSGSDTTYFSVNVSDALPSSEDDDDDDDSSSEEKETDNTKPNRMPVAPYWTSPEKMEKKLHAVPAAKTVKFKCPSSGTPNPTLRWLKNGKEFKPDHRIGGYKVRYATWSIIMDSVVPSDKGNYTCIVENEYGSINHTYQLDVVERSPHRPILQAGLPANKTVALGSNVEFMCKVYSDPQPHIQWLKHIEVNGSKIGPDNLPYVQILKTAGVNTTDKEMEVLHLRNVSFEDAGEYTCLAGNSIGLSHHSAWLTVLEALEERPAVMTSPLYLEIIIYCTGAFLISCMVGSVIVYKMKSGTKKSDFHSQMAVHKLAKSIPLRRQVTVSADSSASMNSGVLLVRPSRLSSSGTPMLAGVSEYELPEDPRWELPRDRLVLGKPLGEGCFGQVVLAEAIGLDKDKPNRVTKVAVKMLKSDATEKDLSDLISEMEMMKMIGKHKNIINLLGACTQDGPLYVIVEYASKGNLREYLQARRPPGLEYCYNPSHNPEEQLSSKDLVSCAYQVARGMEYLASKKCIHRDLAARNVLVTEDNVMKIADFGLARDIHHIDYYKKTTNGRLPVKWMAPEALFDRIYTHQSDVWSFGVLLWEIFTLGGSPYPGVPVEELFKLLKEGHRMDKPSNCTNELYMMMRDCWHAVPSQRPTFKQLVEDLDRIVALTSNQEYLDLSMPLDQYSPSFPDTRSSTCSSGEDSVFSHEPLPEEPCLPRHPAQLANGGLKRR

`C=CC(=O)Nc1ccc(CCn2c(=O)c(-c3cc(OC)cc(OC)c3Cl)cc3cnc(NCCN(CC)CC)nc32)cn1` [Example 29, N-(5-(2-(6-(2-chloro-3,5-dimethoxyphenyl)-2-((2-(diethylamino)ethyl)amino)-7-oxopyrido[2,3-d]pyrimidin-8(7H)-yl)ethyl)pyridin-2-yl)acrylamide]: the IC50 stood at 49.3 nM. The figure for `C=CC(=O)Nc1cccc(CCn2c(=O)c(-c3cc(OC)cc(OC)c3F)cc3cnc(NCCCCN(CC)CC)nc32)c1` [Example 42, N-(3-(2-(6-(2-fluoro-3,5-dimethoxyphenyl)-2-(4-diethylaminobutylamino)-7-oxopyrido[2,3-d]pyrimidin-8(7H)-yl)ethyl)phenyl)acrylamide] is 1.8 nM; for `C=CC(=O)Nc1cn(CCn2c(=O)c(-c3cc(OC)cc(OC)c3Cl)cc3cnc(NC)nc32)cn1` [Example 48, N-(1-(2-(6-(2-chloro-3,5-dimethoxyphenyl)-2-(methylamino)-7-oxopyrido[2,3-d]-pyrimidin-8(7H)-yl)ethyl)-1H-imidazol-4-yl)acrylamide] it is 48 nM; for `C=CC(=O)Nc1ccc(CCn2c(=O)c(-c3cc(OC)cc(OC)c3Cl)cc3cnc(NCCN4C[C@@H](C)N[C@@H](C)C4)nc32)cc1` [Example 85, N-(4-(2-(6-(2-chloro-3,5-dimethoxyphenyl)-2-((2-((3S,5R)-3,5-dimethylpiperazin-1-yl)ethyl)amino)-7-oxopyrido[2,3-d]pyrimidin-8(7H)-yl)ethyl)phenyl)acrylamide] it is 1.2 nM. As for `C=CC(=O)Nc1ccc(CCn2c(=O)c(-c3cc(OC)cc(OC)c3Cl)cc3cnc(NC(C)(CO)CO)nc32)cc1` [Example 95, N-(4-(2-(6-(2-chloro-3,5-dimethoxyphenyl)-2-((1,3-dihydroxy-2-methylpropan-2-yl)amino)-7-oxopyrido[2,3-d]pyrimidin-8(7H)-yl)ethyl)phenyl)acrylamide], the IC50 turned out to be 6.2 nM. With `C=CC(=O)Nc1ccc(CCn2c(=O)c(-c3cc(OC)cc(OC)c3Cl)cc3cnc(NCC4(O)CCN(C)CC4)nc32)cc1` [Example 96, N-(4-(2-(6-(2-chloro-3,5-dimethoxyphenyl)-2-(((4-hydroxy-1-methylpiperidin-4-yl)methyl)-amino)-7-oxopyrido[2,3-d]pyrimidin-8(7H)-yl)ethyl)phenyl)acrylamide], the half-inhibitory concentration (IC50) stood at 9.8 nM. For the molecule `C=CC(=O)Nc1ccc(CCn2c(=O)c(-c3c(Cl)cccc3Cl)cc3cnc(NC)nc32)cc1` [Example 106, N-(4-(2-(6-(2,6-dichlorophenyl)-2-(methylamino)-7-oxopyrido[2,3-d]pyrimidin-8(7H)-yl)ethyl)phenyl)acrylamide], the 50% inhibitory concentration (IC50) came to 29.6 nM.

Take `C=CC(=O)Nc1ccc(CCn2c(=O)c(-c3c(Cl)cccc3Cl)cc3cnc(NC)nc32)nc1` [Example 107, N-(6-(2-(6-(2,6-dichlorophenyl)-2-(methylamino)-7-oxopyrido[2,3-d]pyrimidin-8(7H)-yl)ethyl)pyridin-3-yl)acrylamide]: the IC50 is 12.5 nM. Consider `C=CC(=O)Nc1ccc(CCn2c(=O)c(-c3cc(OC)cc(OC)c3Cl)cc3cnc(Nc4ccccn4)nc32)nc1` [Example 108, N-(6-(2-(6-(2-chloro-3,5-dimethoxyphenyl)-7-oxo-2-(pyridin-2-ylamino)pyrido[2,3-d]pyrimidin-8(7H)-yl)ethyl)pyridin-3-yl)acrylamide], for which the IC50 worked out at 8.2 nM. The result for `C=CC(=O)Nc1ccc(CCn2c(=O)c(-c3cc(OC)cc(OC)c3Cl)cc3cnc(NCC(C)(C)N4CCOCC4)nc32)cc1` [Example 110, N-(4-(2-(6-(2-chloro-3,5-dimethoxyphenyl)-2-((2-methyl-2-morpholinopropyl)-amino)-7-oxopyrido[2,3-d]pyrimidin-8(7H)-yl)ethyl)phenyl)acrylamide] reads 1.9 nM.
